Measured values published in US6737383B1, “Herbicidal oxadiazolidines” (priority 1999, dated 2004).

Tests used:
cocklebur = test: Test B pre/postemergence cocklebur; assay type: in vivo, Xanthium strumarium
Procedure, shortened: (§1)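 Test chemicals in a non-phytotoxic solvent mixture with surfactant were sprayed preemergence onto planted seeds and postemergence onto plants 2 to 18 cm tall (1- to 4-leaf stage). After twelve to sixteen days in a greenhouse, injury was visually rated against untreated controls from 0 (no effect) to 10 (complete control).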

corn = test: Test B pre/postemergence corn; assay type: in vivo, Zea mays
Procedure, shortened: as §1

crabgrass = test: Test B pre/postemergence crabgrass; assay type: in vivo, Digitaria sanguinalis
Procedure, shortened: as §1

giant foxtail = test: Test B pre/postemergence giant foxtail; assay type: in vivo, Setaria faberii
Procedure, shortened: as §1

morningglory = test: Test B pre/postemergence morningglory; assay type: in vivo, Ipomoea hederacea
Procedure, shortened: as §1

pigweed = test: Test B pre/postemergence pigweed; assay type: in vivo, Amaranthus retroflexus
Procedure, shortened: as §1

rape = test: Test B pre/postemergence rape; assay type: in vivo, Brassica napus
Procedure, shortened: as §1

soybean = test: Test B pre/postemergence soybean; assay type: in vivo, Glycine max
Procedure, shortened: as §1

sugar beet = test: Test B pre/postemergence sugar beet; assay type: in vivo, Beta vulgaris
Procedure, shortened: as §1

velvetleaf = test: Test B pre/postemergence velvetleaf; assay type: in vivo, Abutilon theophrasti
Procedure, shortened: as §1

wheat = test: Test B pre/postemergence wheat; assay type: in vivo, Triticum aestivum
Procedure, shortened: as §1

wild oat = test: Test B pre/postemergence wild oat; assay type: in vivo, Avena fatua
Procedure, shortened: as §1

purple nutsedge = test: Test B pre/postemergence purple nutsedge; assay type: in vivo, Cyperus rotundus
Procedure, shortened: as §1

rice = test: Test B flood test rice; assay type: in vivo, Oryza sativa
Procedure, shortened: (§2)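 Read-out is a visual response score from 0 (no effect) to 10 (complete control), assigned by comparison with untreated controls. Treatment was applied at the 2-leaf stage, and plants stayed in the greenhouse for twelve to sixteen days before scoring.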

duck salad = test: Test B flood test duck salad; assay type: in vivo, Heteranthera limosa
Procedure, shortened: as §2

bamyardgrass = test: Test B flood test barnyardgrass; assay type: in vivo, Echinochloa crus-galli
Procedure, shortened: as §2

[1] = Postemergence, Rate 62 g/ha, scale 0 to 10, 0 is no effect, 10 is complete control
[2] = Postemergence, Rate 125 g/ha, scale of 0 to 10 where 0 is no effect and 10 is complete control
[3] = Postemergence, Rate 250 g/ha, scale of 0 to 10, 0 is no effect, 10 is complete control
[4] = Postemergence, Rate 500 g/ha, scale of 0 to 10 where 0 is no effect and 10 is complete control
[5] = Preemergence, Rate 62 g/ha, scale 0 to 10 (0 no effect, 10 complete control)
[6] = Preemergence, Rate 125 g/ha, scale of 0 to 10 where 0 is no effect and 10 is complete control
[7] = Preemergence, Rate 250 g/ha, scale 0 to 10 (0 no effect, 10 complete control)
[8] = Preemergence, Rate 500 g/ha, scale of 0 to 10 where 0 is no effect and 10 is complete control
[9] = Rate 62 g/ha, flood test species, Pre-emergence, visual evaluation after twelve to sixteen days
[10] = Rate 125 g/ha, under heading Pre-emergence, flood test species, visual evaluation after twelve to sixteen days
[11] = Rate 250 g/ha, Pre-emergence (flood test species), scale 0 to 10, 0 is no effect, 10 is complete control
[12] = Rate 500 g/ha, Pre-emergence section of Table B, 0 to 10 scale (0 no effect, 10 complete control)

SMILES: CC(=O)NCn1c(=O)on(C(=O)N(c2ccccc2)C(C)C)c1=O [Compound 621]
- Plant response rating, Cocklebur (cocklebur; [1]): 0
- Plant response rating, Cocklebur (cocklebur; [2]): 0
- Cocklebur plant response rating (cocklebur; [3]): 0
- Plant response rating, Cocklebur (cocklebur; [4]): 0
- Cocklebur plant response rating (cocklebur; [5]): 0
- Cocklebur plant response rating (cocklebur; [6]): 0
- Plant response rating, Cocklebur (cocklebur; [7]): 0
- Plant response rating, Cocklebur (cocklebur; [8]): 0
- Plant response rating, Corn (corn; [1]): 0
- Plant response rating, Corn (corn; [2]): 0
- Corn plant response rating (corn; [3]): 0
- Plant response rating, Corn (corn; [4]): 0
- Corn plant response rating (corn; [5]): 0
- Corn plant response rating (corn; [6]): 0
- Plant response rating, Corn (corn; [7]): 0
- Plant response rating, Corn (corn; [8]): 0
- Plant response rating, Crabgrass (crabgrass; [1]): 0
- Plant response rating, Crabgrass (crabgrass; [2]): 3
- Crabgrass plant response rating (crabgrass; [5]): 5
- Crabgrass plant response rating (crabgrass; [6]): 6
- Plant response rating, Crabgrass (crabgrass; [7]): 7
- Plant response rating, Crabgrass (crabgrass; [8]): 8
- Plant response rating, Giant foxtail (giant foxtail; [1]): 0
- Plant response rating, Giant foxtail (giant foxtail; [2]): 0
- Giant foxtail plant response rating (giant foxtail; [3]): 1
- Plant response rating, Giant foxtail (giant foxtail; [4]): 7
- Giant foxtail plant response rating (giant foxtail; [5]): 0
- Giant foxtail plant response rating (giant foxtail; [6]): 7
- Plant response rating, Giant foxtail (giant foxtail; [7]): 7
- Plant response rating, Giant foxtail (giant foxtail; [8]): 10
- Plant response rating, Morningglory (morningglory; [1]): 1
- Plant response rating, Morningglory (morningglory; [2]): 2
- Morningglory plant response rating (morningglory; [3]): 2
- Plant response rating, Morningglory (morningglory; [4]): 8
- Morningglory plant response rating (morningglory; [5]): 0
- Morningglory plant response rating (morningglory; [6]): 0
- Plant response rating, Morningglory (morningglory; [7]): 0
- Plant response rating, Morningglory (morningglory; [8]): 0
- Plant response rating, Redroot pigweed (pigweed; [1]): 0
- Plant response rating, Redroot pigweed (pigweed; [2]): 0
- Redroot pigweed plant response rating (pigweed; [3]): 0
- Redroot pigweed plant response rating (pigweed; [5]): 0
- Redroot pigweed plant response rating (pigweed; [6]): 0
- Plant response rating, Redroot pigweed (pigweed; [7]): 0
- Plant response rating, Redroot pigweed (pigweed; [8]): 0
- Plant response rating, Rape (rape; [1]): 0
- Plant response rating, Rape (rape; [2]): 0
- Rape plant response rating (rape; [3]): 0
- Plant response rating, Rape (rape; [4]): 0
- Rape plant response rating (rape; [5]): 0
- Rape plant response rating (rape; [6]): 0
- Plant response rating, Rape (rape; [7]): 0
- Plant response rating, Rape (rape; [8]): 0
- Plant response rating, Soybean (soybean; [1]): 1
- Plant response rating, Soybean (soybean; [2]): 5
- Soybean plant response rating (soybean; [3]): 5
- Soybean plant response rating (soybean; [5]): 0
- Soybean plant response rating (soybean; [6]): 0
- Plant response rating, Soybean (soybean; [7]): 0
- Plant response rating, Soybean (soybean; [8]): 3
- Plant response rating, Sugarbeets (sugar beet; [1]): 0
- Plant response rating, Sugarbeets (sugar beet; [2]): 0
- Sugarbeets plant response rating (sugar beet; [3]): 0
- Sugarbeets plant response rating (sugar beet; [5]): 0
- Sugarbeets plant response rating (sugar beet; [6]): 0
- Plant response rating, Sugarbeets (sugar beet; [7]): 0
- Plant response rating, Sugarbeets (sugar beet; [8]): 0
- Plant response rating, Velvetleaf (velvetleaf; [1]): 0
- Plant response rating, Velvetleaf (velvetleaf; [2]): 0
- Velvetleaf plant response rating (velvetleaf; [3]): 0
- Velvetleaf plant response rating (velvetleaf; [5]): 0
- Velvetleaf plant response rating (velvetleaf; [6]): 0
- Plant response rating, Velvetleaf (velvetleaf; [7]): 0
- Plant response rating, Velvetleaf (velvetleaf; [8]): 0
- Plant response rating, Wheat (wheat; [1]): 0
- Plant response rating, Wheat (wheat; [2]): 0
- Wheat plant response rating (wheat; [3]): 0
- Wheat plant response rating (wheat; [5]): 0
- Wheat plant response rating (wheat; [6]): 0
- Plant response rating, Wheat (wheat; [7]): 0
- Plant response rating, Wheat (wheat; [8]): 0
- Plant response rating, Wild oats (wild oat; [1]): 0
- Plant response rating, Wild oats (wild oat; [2]): 0
- Wild oats plant response rating (wild oat; [3]): 0
- Wild oats plant response rating (wild oat; [5]): 0
- Wild oats plant response rating (wild oat; [6]): 0
- Plant response rating, Wild oats (wild oat; [7]): 0
- Plant response rating, Wild oats (wild oat; [8]): 0
- Plant response rating, Nutsedge (purple nutsedge; [1]): 0
- Plant response rating, Nutsedge (purple nutsedge; [2]): 0
- Nutsedge plant response rating (purple nutsedge; [3]): 0
- Plant response rating, Nutsedge (purple nutsedge; [4]): 0
- Nutsedge plant response rating (purple nutsedge; [5]): 0
- Nutsedge plant response rating (purple nutsedge; [6]): 0
- Plant response rating, Nutsedge (purple nutsedge; [7]): 0
- Plant response rating, Nutsedge (purple nutsedge; [8]): 0
- Plant response rating, Rice (0 to 10 scale, 0 is no effect, 10 is complete control) (rice; [9]): 0
- Rice plant response rating (0 to 10 scale, 0 is no effect, 10 is complete control) (rice; [10]): 0
- Rice plant response rating (rice; [11]): 0
- Rice plant response rating (rice; [12]): 0
- Plant response rating, Ducksalad (0 to 10 scale, 0 is no effect, 10 is complete control) (duck salad; [9]): 0
- Ducksalad plant response rating (0 to 10 scale, 0 is no effect, 10 is complete control) (duck salad; [10]): 0
- Ducksalad plant response rating (duck salad; [11]): 0
- Ducksalad plant response rating (duck salad; [12]): 0
- Plant response rating, Barnyardgrass (0 to 10 scale, 0 is no effect, 10 is complete control) (bamyardgrass; [9]): 0
- Barnyardgrass plant response rating (0 to 10 scale, 0 is no effect, 10 is complete control) (bamyardgrass; [10]): 0
- Barnyardgrass plant response rating (bamyardgrass; [11]): 0
- Barnyardgrass plant response rating (bamyardgrass; [12]): 0
